Assay results as given in patent US20120035201A1, “SPIROHETEROCYCLIC PYRROLIDINE DIONE DERIVATIVES USED AS PESTICIDES” (SYNGENTA CROP PROTECTION LLC, priority 2009, published 2012).

Assays:
[1] = test system: Tetranychus urticae (two-spotted spider mite); experiment: Example B3: activity against Tetranychus urticae, sprayed bean leaf discs (feeding/residual contact, preventive); type: in vivo; conditions: foliar, 192 h, mixed population, 8 days, read-out: activity (egg, larval and adult mortality)
Description: Activity Against Tetranychus urticae (Two-Spotted Spider Mite)
(Mixed Population, Feeding/Residual Contact Activity, Preventive)
Bean leaf discs on agar in 24-well microtiter plates are sprayed with test solutions. […] 8 days later, discs are checked for egg mortality, larval mortality, and adult mortality. In this test, compounds listed in the Table A above show good activity. In particular compounds A1, A4, A5, A7, A8, A9, A10, A11, A12, A13 and A14 show an activity of over 80% at a concentration of 400 ppm.

[2] = test system: Diabrotica balteata (corn root worm); experiment: Example B5: activity against Diabrotica balteata, larvicide on artificial diet in microtiter plate; type: in vivo; conditions: 120 h, L2 larvae, 5 days, read-out: activity (larval mortality, antifeedant, growth regulation)
Experimental: Activity Against Diabrotica balteata (Corn Root Worm)
(Larvicide, Feeding/Residual Contact Activity, Preventive)
24-well microtiter plate (MTP) with artificial diet is treated with test solutions by pipetting. After drying, the MTP's are infested with larvae (L2)(6-10 per well). After an incubation period of 5 days, samples are checked for larval mortality, antifeedant and growth regulation.

[3] = test system: Bemisia tabaci (tobacco white fly); experiment: Example B7: activity against Bemisia tabaci, larvicide on bean plants (contact/feeding); type: in vivo; conditions: 200 ppm; bean plants with N-2 nymphs sprayed, three weeks
Experimental: Activity Against Bemisia tabaci (Tobacco White Fly)
(Larvicide, Contact/Feeding)
Bean plants are infested with 20-30 adults that were removed after a 4 day egg-laying period. After another 7 days, bean plants with hatched nymphs (N−2) are treated (2 replicates) with the test solutions in a spray chamber. Three weeks later, samples are checked for number of emerged adults. Efficacy was calculeted by comparing number of emerged adults in treated and non treated samples.

[4] = test system: Nilaparvata lugens (brown rice planthopper); experiment: Example B8: activity against Nilaparvata lugens, larvicide on rice seedlings (feeding/contact); type: in vivo; conditions: sprayed rice seedlings, N3 nymphs, 6-12 days, read-out: activity (mortality, growth regulation, effects on F1 generation)
Experimental: Activity Against Nilaparvata lugens (Brown Rice Planthopper)
(Larvicide, Feeding/Contact)
Rice seedlings are treated with the diluted test solutions in a spray chamber. After drying, they are infested with 20 N3 nymphs (2 replicates). 6-12 days after the treatment samples are checked for mortality, growth regulation, and effects on the F1 generation. In this test, compounds listed in the Table A above show good activity. For example compounds A1, A2, A4, A7, A8, A9, A13 and A14 show an activity of over 80% at a concentration of 400 ppm.

[5] = test system: Aonidiella Aurantii (red scale); experiment: Example B10: activity against Aonidiella aurantii, dipped potato tubers; type: in vivo; conditions: 200 ppm, 6-8 weeks
Description: Activity Against Aonidiella Aurantii (Red Scale)
Treatment of potato tubers by dipping the in the test solution. One day later, tubers are infested with about 50 crawlers. 6-8 weeks after application samples are checked for the number of crawlers of the next generation (compared to the non treated samples). In this test, compounds listed in the Table A above show good activity.

[6] = test system: Aphis gossypii (cotton aphid); experiment: Example B11: activity against Aphis gossypii, pea seedling roots in test solution (systemic/feeding); type: in vivo; conditions: 144 h, roots of infested pea seedlings in test solution, 6 days
Description: Activity Against Aphis gossypii (Cotton Aphid)
(§1) (Mixed Population, Systemic/Feeding)
6 days later, samples are checked for mortality. In this test, compounds listed in Table A above show good activity.

[7] = test system: cowpea aphid (Aphis craccivora); experiment: Example B13: insecticide seed treatment of sugarbeet seeds, infestation with cowpea aphid; type: in vivo; conditions: 0.1 mg a.i./seed, infested after 14 days, counted 7 days later
Experimental: Insecticide Seed Treatment
Sugarbeet seeds are treated with test compounds at various rates (mg a.i./seed). The seeds are sown into pots filled with soil. After placing the seeds on the soil surface they are further covered with soil. Before and during the bioassays, the plants are grown under optimal greenhouse conditions. After 14 days, the plants are infested with cowpea aphid (Aphis craccivora) by placing one infested pea seedling containing approximately 150 aphids of a population of mixed developmental stages onto each plant. Seven days after infestation, the number of aphids is counted per plant. Each treatment group is replicated 10 times. Each replicate contains 1 plant.

[8] = test system: Myzus persicae (green peach aphid); experiment: Example B2: activity against Myzus persicae, pea seedling roots in test solution (systemic/feeding, curative); conditions: 144 h, read-out: activity (mortality)
[9] = test system: Thrips tabaci (onion thrips); experiment: Example B4: activity against Thrips tabaci, sprayed sunflower leaf discs (feeding/residual contact, preventive); conditions: foliar, 144 h, read-out: activity (mortality)
[10] = test system: Myzus persicae (green peach aphid); experiment: Example B1: activity against Myzus persicae, sprayed sunflower leaf discs (feeding/residual contact, preventive); conditions: foliar, 144 h, read-out: activity (mortality)
[11] = test system: Myzus persicae (green peach aphid); experiment: Example B12: activity against Myzus persicae on sprayed pepper plants (feeding/residual contact); type: in vivo; conditions: 144 h, 6 days
[12] = test system: pepper plants; experiment: Example B12: plant damage evaluation (phytotoxicity) on sprayed pepper plants; conditions: in vivo, 6 days, 200 ppm
[13] = test system: Aphis Craccivora (cowpea aphid); experiment: Example B9: translaminar activity against Aphis craccivora on French bean leaves; type: in vivo; conditions: 120 h, upper leaf side painted, aphids on lower side, 5 days
Experimental: Translaminar Activity Against Aphis Craccivora (Cowpea Aphid)
French bean leaves (Phaseolus vulgaris) are infested with about 20 mixed age individuals on the lower leaf side using clip cages. 1 day after the infestation, the upper side of the leaves is treated with the test solution by painting. 5 days later, samples are checked for mortality.

[14] = test system: Aphis Craccivora (cowpea aphid); experiment: Example B15: activity against Aphis craccivora, pea seedling roots in test solution (systemic/feeding); type: in vivo; conditions: 144 h, roots of infested pea seedlings in test solution, 6 days
Description: Activity Against Aphis Craccivora (Cowpea Aphid)
as §1
6 days later, samples are checked for mortality. In this test, compounds listed in Table A above show good activity. For example compounds A8, A9, A13 and A14 show an activity of over 80% at a concentration of 25 ppm.

Row | SMILES | mortality at 400 ppm [1] [%] | mortality at 400 ppm [4] [%] | mortality at 400 ppm [8] [%] | mortality at 400 ppm [9] [%] | mortality at 400 ppm [10] [%] | mortality at 400 ppm [13] [%] | other results
1 | CON1CCC2(CC1)NC(=O)C(Cl)(c1cc(C)ccc1C)C2=O (stereo not drawn) [A1, 3-chloro-3-(2,5-dimethyl-phenyl)-8-methoxy-1,8-diaza-spiro[4.5]decane-2,4-dione] | > 80 | > 80 | > 80 | > 80 | > 80 |  | mortality at 400 ppm [2]: > 80%; activity (efficacy, number of emerged adults vs non treated) [3]: over 80%; activity (number of crawlers of the next generation vs non treated) [5]: over 80%; mortality at 25 ppm [6]: > 80%; efficacy in the reduction of aphids compared to untreated control plants [7]: over 80%
2 | CON1CCC2(CC1)NC(=O)C(F)(c1cc(C)ccc1C)C2=O (stereo not drawn) [A2, 3-(2,5-dimethyl-phenyl)-3-fluoro-8-methoxy-1,8-diaza-spiro[4.5]decane-2,4-dione] |  | > 80 |  | > 80 | > 80 |  | 
3 | CON1CCC2(CC1)NC(=O)C(Cl)(c1ccc(Cl)cc1Cl)C2=O (stereo not drawn) [A3] |  |  | > 80 |  | > 80 |  | 
4 | CON1CCC2(CC1)NC(=O)C(Cl)(c1c(C)cc(Cl)cc1C)C2=O (stereo not drawn) [A5] | > 80 |  | > 80 | > 80 | > 80 |  | mortality at 200 ppm [11]: ≥ 80%; damage to pepper plants (phytotoxicity, 0-100% rating scale) [12]: ≤ 10%
5 | CON1CCC2(CC1)NC(=O)C(Cl)(c1c(C)cc(Br)cc1C)C2=O (stereo not drawn) [A6] |  |  |  |  | > 80 |  | 
6 | CON1CCC2(CC1)NC(=O)C(Cl)(c1c(C)cc(Br)cc1Cl)C2=O (stereo not drawn) [A7, 3-(4-bromo-2-chloro-6-methyl-phenyl)-3-chloro-8-methoxy-1,8-diaza-spiro[4.5]decane-2,4-dione] | > 80 | > 80 | > 80 | > 80 | > 80 | > 80 | mortality at 200 ppm [11]: ≥ 80%; damage to pepper plants (phytotoxicity, 0-100% rating scale) [12]: ≤ 10%
7 | CON1CCC2(CC1)NC(=O)C(Cl)(c1c(C)cccc1C)C2=O (stereo not drawn) [A8] | > 80 | > 80 | > 80 | > 80 | > 80 | > 80 | mortality at 200 ppm [11]: ≥ 80%; damage to pepper plants (phytotoxicity, 0-100% rating scale) [12]: ≤ 10%; mortality at 25 ppm [14]: > 80%
8 | CON1CCC2(CC1)NC(=O)C(Cl)(c1c(C)cc(C)cc1Cl)C2=O (stereo not drawn) [A9] | > 80 | > 80 | > 80 | > 80 | > 80 | > 80 | mortality at 25 ppm [14]: > 80%
9 | CON1CCC2(CC1)NC(=O)C(Cl)(c1c(C)ccc(Cl)c1C)C2=O (stereo not drawn) [A10] | > 80 |  |  | > 80 | > 80 |  | 
10 | CON1CCC2(CC1)NC(=O)C(Cl)(c1cc(C)c(Cl)cc1C)C2=O (stereo not drawn) [A11] | > 80 |  |  | > 80 | > 80 |  | mortality at 400 ppm [2]: > 80%
11 | CON1CCC2(CC1)NC(=O)C(Cl)(c1cc(C)c(C)cc1Cl)C2=O (stereo not drawn) [A12] | > 80 |  | > 80 | > 80 | > 80 |  | mortality at 400 ppm [2]: > 80%
12 | CON1CCC2(CC1)NC(=O)C(Cl)(c1cc(C)c(C)cc1C)C2=O (stereo not drawn) [A13] | > 80 | > 80 | > 80 | > 80 | > 80 | > 80 | mortality at 400 ppm [2]: > 80%; mortality at 200 ppm [11]: ≥ 80%; damage to pepper plants (phytotoxicity, 0-100% rating scale) [12]: ≤ 10%; mortality at 25 ppm [14]: > 80%
13 | CON1CCC2(CC1)NC(=O)C(Cl)(c1c(C)cc(C)cc1C)C2=O (stereo not drawn) [A14] | > 80 | > 80 | > 80 | > 80 | > 80 | > 80 | mortality at 25 ppm [14]: > 80%
14 | CON1CCC2(CC1)NC(=O)C(Cl)(c1cc(Br)c(C)cc1C)C2=O (stereo not drawn) [A15] |  |  | > 80 | > 80 | > 80 |  | 
15 | CON1CCC2(CC1)NC(=O)C(c1c(C)cc(C)cc1C)([N+](=O)[O-])C2=O (stereo not drawn) [A16, 8-methoxy-3-nitro-3-(2,4,6-trimethyl-phenyl)-1,8-diaza-spiro[4.5]decane-2,4-dione] |  |  |  |  |  |  | melting point: 136 °C (dec.)
16 | CON1CCC2(CC1)NC(=O)C(Cl)(c1c(Br)cc(C)cc1Br)C2=O (stereo not drawn) [A18] |  |  | > 80 |  | > 80 |  | 
